Reference: patent US20150105252A1, “SUBSTITUTED PYRAZOLES AS HERBICIDES” (E I DU PONT DE NEMOURS AND COMPANY, priority 2013, published 2015)

Assays:
bluegrass = test: Test D preemergence; format: in vivo, Poa annua; settings: Preemergence, scale 0 to 100
Procedure, shortened: (§1)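 Preemergence: seeds sown in silt loam soil and sprayed with test chemical in non-phytotoxic solvent mixture with surfactant. Postemergence: plants grown in peat/vermiculite medium, sprayed at 2–18 cm (1- to 4-leaf stage). Visual rating versus untreated controls after 14–21 days, 0 (no effect) to 100 (complete control).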

chickweed = test: Test D preemergence; format: in vivo, Stellaria media; settings: Preemergence, scale 0 to 100
Procedure, shortened: as §1

galium = test: Test D preemergence; format: in vivo, Galium aparine; settings: Preemergence, scale 0 to 100
Procedure, shortened: as §1

field poppy = test: Test D preemergence; format: in vivo, Papaver rhoeas; settings: Preemergence, scale 0 to 100
Procedure, shortened: as §1

field violet = test: Test D preemergence; format: in vivo, Viola arvensis; settings: Preemergence, scale 0 to 100
Procedure, shortened: as §1

kochia [1] = test: Test D preemergence; format: in vivo, Kochia scoparia; settings: Preemergence, scale 0 to 100
Procedure, shortened: as §1

oilseed rape = test: Test D preemergence; format: in vivo, Brassica napus; settings: Preemergence, scale 0 to 100
Procedure, shortened: as §1

chamomile [2] = test: Test D preemergence; format: in vivo, Matricaria inodora; settings: Preemergence, scale 0 to 100
Procedure, shortened: as §1

speedwell [3] = test: Test D preemergence; format: in vivo, Veronica persica; settings: Preemergence, scale 0 to 100
Procedure, shortened: as §1

wheat, spring = test: Test D preemergence; format: in vivo, Triticum aestivum; settings: Preemergence, scale 0 to 100
Procedure, shortened: as §1

wheat, winter = test: Test D preemergence; format: in vivo, Triticum aestivum; settings: Preemergence, scale 0 to 100
Procedure, shortened: as §1

windgrass = test: Test D preemergence; format: in vivo, Apera spica-venti; settings: Preemergence, scale 0 to 100
Procedure, shortened: as §1

blackgrass = test: Test D postemergence; format: in vivo, Alopecurus myosuroides; settings: scale 0 to 100
Procedure, shortened: as §1

bromegrass, downy = test: Test D postemergence; format: in vivo, Bromus tectorum; settings: scale 0 to 100
Procedure, shortened: as §1

deadnettle = test: Test D postemergence; format: in vivo, Lamium amplexicaule; settings: scale 0 to 100
Procedure, shortened: as §1

kochia [4] = test: Test D postemergence; format: in vivo, Kochia scoparia; settings: scale 0 to 100
Procedure, shortened: as §1

chamomile [5] = test: Test D postemergence; format: in vivo, Matricaria inodora; settings: scale 0 to 100
Procedure, shortened: as §1

speedwell [6] = test: Test D postemergence; format: in vivo, Veronica persica; settings: scale 0 to 100
Procedure, shortened: as §1

barley, spring = test: Test D postemergence; format: in vivo, Hordeum vulgare; settings: scale 0 to 100
Procedure, shortened: as §1

barley, winter = test: Test D postemergence; format: in vivo, Hordeum vulgare; settings: scale 0 to 100
Procedure, shortened: as §1

buckwheat, wild = test: Test D postemergence; format: in vivo, Polygonum convolvulus; settings: scale 0 to 100
Procedure, shortened: as §1

## CCCc1cc(C(=O)NC2CC2)nn1Cc1cc(C(F)(F)F)nn1C [Compound 202]
bluegrass; 31 g ai/ha
  Plant response rating, Bluegrass: 10
bluegrass; 62 g ai/ha
  Plant response rating, Bluegrass: 5
bluegrass; 125 g ai/ha
  Plant response rating, Bluegrass: 50
bluegrass; 250 g ai/ha
  Plant response rating, Bluegrass: 80
chickweed; 31 g ai/ha
  Plant response rating, Chickweed: 100
chickweed; 62 g ai/ha
  Plant response rating, Chickweed: 100
chickweed; 125 g ai/ha
  Plant response rating, Chickweed: 100
chickweed; 250 g ai/ha
  Plant response rating, Chickweed: 100
galium; 62 g ai/ha
  Plant response rating, Galium: 35
galium; 125 g ai/ha
  Plant response rating, Galium: 70
galium; 250 g ai/ha
  Plant response rating, Galium: 100
Field poppy; 62 g ai/ha
  Plant response rating, Field Poppy: 100
Field poppy; 125 g ai/ha
  Plant response rating, Field Poppy: 100
Field poppy; 250 g ai/ha
  Plant response rating, Field Poppy: 100
Field violet; 62 g ai/ha
  Plant response rating, Field Violet: 25
Field violet; 125 g ai/ha
  Plant response rating, Field Violet: 100
Field violet; 250 g ai/ha
  Plant response rating, Field Violet: 100
Kochia [1]; 62 g ai/ha
  Plant response rating, Kochia: 100
Kochia [1]; 125 g ai/ha
  Plant response rating, Kochia: 100
Kochia [1]; 250 g ai/ha
  Plant response rating, Kochia: 100
Oilseed rape; 62 g ai/ha
  Plant response rating, Oilseed Rape: 65
Oilseed rape; 125 g ai/ha
  Plant response rating, Oilseed Rape: 70
Oilseed rape; 250 g ai/ha
  Plant response rating, Oilseed Rape: 90
Chamomile [2]; 31 g ai/ha
  Plant response rating, Chamomile: 5
Chamomile [2]; 62 g ai/ha
  Plant response rating, Chamomile: 100
Chamomile [2]; 125 g ai/ha
  Plant response rating, Chamomile: 100
Chamomile [2]; 250 g ai/ha
  Plant response rating, Chamomile: 100
Speedwell [3]; 62 g ai/ha
  Plant response rating, Speedwell: 100
Speedwell [3]; 125 g ai/ha
  Plant response rating, Speedwell: 100
Speedwell [3]; 250 g ai/ha
  Plant response rating, Speedwell: 100
wheat, spring; 62 g ai/ha
  Plant response rating, Wheat, Spring: 0
wheat, spring; 125 g ai/ha
  Plant response rating, Wheat, Spring: 10
wheat, spring; 250 g ai/ha
  Plant response rating, Wheat, Spring: 25
wheat, winter; 62 g ai/ha
  Plant response rating, Wheat, Winter: 5
wheat, winter; 125 g ai/ha
  Plant response rating, Wheat, Winter: 25
wheat, winter; 250 g ai/ha
  Plant response rating, Wheat, Winter: 60
windgrass; 62 g ai/ha
  Plant response rating, Windgrass: 55
windgrass; 125 g ai/ha
  Plant response rating, Windgrass: 75
windgrass; 250 g ai/ha
  Plant response rating, Windgrass: 100
blackgrass; Postemergence, 31 g ai/ha
  Blackgrass plant response rating: 15
blackgrass; Postemergence, 125 g ai/ha
  Blackgrass plant response rating: 25
blackgrass; Postemergence, 250 g ai/ha
  Blackgrass plant response rating: 35
blackgrass; postemergence, 62 g ai/ha
  Blackgrass plant response rating: 15
bromegrass, downy; Postemergence, 31 g ai/ha
  Bromegrass, Downy plant response rating: 25
bromegrass, downy; Postemergence, 125 g ai/ha
  Bromegrass, Downy plant response rating: 35
bromegrass, downy; Postemergence, 250 g ai/ha
  Bromegrass, Downy plant response rating: 35
bromegrass, downy; postemergence, 62 g ai/ha
  Bromegrass, Downy plant response rating: 25
deadnettle; Postemergence, 31 g ai/ha
  Deadnettle plant response rating: 55
deadnettle; Postemergence, 125 g ai/ha
  Deadnettle plant response rating: 60
deadnettle; Postemergence, 250 g ai/ha
  Deadnettle plant response rating: 65
deadnettle; postemergence, 62 g ai/ha
  Deadnettle plant response rating: 55
Kochia [4]; Postemergence, 31 g ai/ha
  Kochia plant response rating: 70
Kochia [4]; Postemergence, 125 g ai/ha
  Kochia plant response rating: 75
Kochia [4]; Postemergence, 250 g ai/ha
  Kochia plant response rating: 85
Kochia [4]; postemergence, 62 g ai/ha
  Kochia plant response rating: 70
Chamomile [5]; Postemergence, 31 g ai/ha
  Chamomile plant response rating: 55
Chamomile [5]; Postemergence, 125 g ai/ha
  Chamomile plant response rating: 60
Chamomile [5]; Postemergence, 250 g ai/ha
  Chamomile plant response rating: 65
Chamomile [5]; postemergence, 62 g ai/ha
  Chamomile plant response rating: 55
Speedwell [6]; Postemergence, 31 g ai/ha
  Speedwell plant response rating: 70
Speedwell [6]; Postemergence, 125 g ai/ha
  Speedwell plant response rating: 75
Speedwell [6]; Postemergence, 250 g ai/ha
  Speedwell plant response rating: 100
Speedwell [6]; postemergence, 62 g ai/ha
  Speedwell plant response rating: 70
barley, spring; Postemergence, 31 g ai/ha
  Barley, Spring plant response rating: 20
barley, spring; Postemergence, 125 g ai/ha
  Barley, Spring plant response rating: 25
barley, spring; Postemergence, 250 g ai/ha
  Barley, Spring plant response rating: 30
barley, spring; postemergence, 62 g ai/ha
  Barley, Spring plant response rating: 20
barley, winter; Postemergence, 31 g ai/ha
  Barley, Winter plant response rating: 15
barley, winter; Postemergence, 125 g ai/ha
  Barley, Winter plant response rating: 15
barley, winter; Postemergence, 250 g ai/ha
  Barley, Winter plant response rating: 25
barley, winter; postemergence, 62 g ai/ha
  Barley, Winter plant response rating: 15
buckwheat, wild; Postemergence, 31 g ai/ha
  Buckwheat, Wild plant response rating: 40
buckwheat, wild; Postemergence, 125 g ai/ha
  Buckwheat, Wild plant response rating: 70
buckwheat, wild; Postemergence, 250 g ai/ha
  Buckwheat, Wild plant response rating: 90
buckwheat, wild; postemergence, 62 g ai/ha
  Buckwheat, Wild plant response rating: 40
